The data set in a line: Storage stability and micronization of crystalline material from the cubic dosing curve crystallization. The data set is classed as physicochemical. As to conditions: crystalline material obtained from ethanol/water by cubic dosing curve crystallization.

In patent publication US10501437B2 (Bayer Pharma Aktiengesellschaft, priority 2016, dated 2019) one finds stability during storage data, which are given here for one molecule.

For `CC(C)(O)CCn1cc2cc(NC(=O)c3cccc(C(F)(F)F)n3)c(C(C)(C)O)cc2n1` [compound (I), N-[2-(3-Hydroxy-3-methylbutyl)-6-(2-hydroxypropan-2-yl)-2H-indazol-5-yl]-6-(trifluoromethyl)pyridine-2-carboxamide], the stability during storage result is on record as “good stability”.
